Activity calls are given as the source filed them.
How the values were obtained:
[1] = target: Induced myeloid leukemia cell differentiation protein Mcl-1 (Homo sapiens, UniProt Q07820); assay type: functional
[2] = target: DNA dC->dU-editing enzyme APOBEC-3A (Homo sapiens, UniProt P31941); experiment: APOBEC3A DNA deaminase inhibitors, dose response, biochemical (AID 504722); assay type: functional
[3] = target: DNA dC->dU-editing enzyme APOBEC-3G (Homo sapiens, UniProt Q9HC16); experiment: Dose Response confirmation of small molecule APOBEC3G DNA Deaminase Inhibitors via a fluorescence-based single-stranded DNA deaminase assay. [Related pubchem assays (depositor defined):AID493012, AID493028]; assay type: functional
DNA dC->dU-editing enzyme APOBEC-3G, sequence (Q9HC16 whole entry): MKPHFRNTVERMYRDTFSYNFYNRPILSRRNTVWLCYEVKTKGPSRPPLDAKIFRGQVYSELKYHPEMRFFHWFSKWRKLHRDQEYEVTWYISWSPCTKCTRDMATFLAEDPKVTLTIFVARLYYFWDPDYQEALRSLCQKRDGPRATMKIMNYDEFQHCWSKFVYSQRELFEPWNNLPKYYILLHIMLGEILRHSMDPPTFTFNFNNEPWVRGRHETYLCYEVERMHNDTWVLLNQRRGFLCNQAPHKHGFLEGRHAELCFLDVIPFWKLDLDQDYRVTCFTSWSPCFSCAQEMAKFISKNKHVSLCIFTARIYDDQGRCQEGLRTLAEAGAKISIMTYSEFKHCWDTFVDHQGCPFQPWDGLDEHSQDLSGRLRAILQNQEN

[4] = target: T1, Apoptotic protease-activating factor 1 (Homo sapiens, UniProt O14727); experiment: activation of Apaf-1 mediated apoptosis – fluorescent, uHTS hits, dose response (AID 588554); assay type: functional
T1 sequence (O14727 whole entry): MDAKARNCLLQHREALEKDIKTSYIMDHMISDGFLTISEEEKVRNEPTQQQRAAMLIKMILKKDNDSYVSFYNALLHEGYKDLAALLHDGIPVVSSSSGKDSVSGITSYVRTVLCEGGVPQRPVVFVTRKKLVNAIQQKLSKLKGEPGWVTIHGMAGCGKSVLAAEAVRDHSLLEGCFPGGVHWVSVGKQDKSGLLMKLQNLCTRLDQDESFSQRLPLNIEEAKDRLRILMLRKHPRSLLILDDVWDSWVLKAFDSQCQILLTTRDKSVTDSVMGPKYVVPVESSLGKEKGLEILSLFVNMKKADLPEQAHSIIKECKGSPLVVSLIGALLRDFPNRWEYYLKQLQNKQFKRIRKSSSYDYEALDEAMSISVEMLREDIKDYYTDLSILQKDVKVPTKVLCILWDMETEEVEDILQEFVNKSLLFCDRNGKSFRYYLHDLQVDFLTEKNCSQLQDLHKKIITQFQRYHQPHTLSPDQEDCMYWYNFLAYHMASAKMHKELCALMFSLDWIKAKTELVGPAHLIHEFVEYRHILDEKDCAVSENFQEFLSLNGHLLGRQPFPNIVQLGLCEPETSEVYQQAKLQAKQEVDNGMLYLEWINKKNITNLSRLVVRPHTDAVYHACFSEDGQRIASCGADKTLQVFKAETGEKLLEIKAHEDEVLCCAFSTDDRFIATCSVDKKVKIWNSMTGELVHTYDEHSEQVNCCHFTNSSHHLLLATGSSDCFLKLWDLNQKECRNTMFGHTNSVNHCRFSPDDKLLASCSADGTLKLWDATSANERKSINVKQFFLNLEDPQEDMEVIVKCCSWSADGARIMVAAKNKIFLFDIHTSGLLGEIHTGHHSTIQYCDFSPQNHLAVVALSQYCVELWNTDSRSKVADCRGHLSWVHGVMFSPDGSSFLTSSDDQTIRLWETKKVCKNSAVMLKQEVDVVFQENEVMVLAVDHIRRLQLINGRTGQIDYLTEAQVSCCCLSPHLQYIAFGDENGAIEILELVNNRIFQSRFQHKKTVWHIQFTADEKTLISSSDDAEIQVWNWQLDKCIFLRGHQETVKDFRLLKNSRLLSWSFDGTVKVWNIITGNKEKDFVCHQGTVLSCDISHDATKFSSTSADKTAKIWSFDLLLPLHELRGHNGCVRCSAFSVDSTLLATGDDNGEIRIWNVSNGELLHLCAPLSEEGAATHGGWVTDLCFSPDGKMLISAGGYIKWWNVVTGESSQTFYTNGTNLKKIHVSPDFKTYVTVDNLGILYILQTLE

[5] = target: T2, Carboxy-terminal domain RNA polymerase II polypeptide A small phosphatase 1 (Homo sapiens, UniProt Q9GZU7); experiment: inhibitors of CTDSP1, concentration-response testing, biochemical assay, absorbance-based, actives from ultra-high-throughput screening (AID 540297); assay type: functional
T2 sequence (Q9GZU7 whole entry): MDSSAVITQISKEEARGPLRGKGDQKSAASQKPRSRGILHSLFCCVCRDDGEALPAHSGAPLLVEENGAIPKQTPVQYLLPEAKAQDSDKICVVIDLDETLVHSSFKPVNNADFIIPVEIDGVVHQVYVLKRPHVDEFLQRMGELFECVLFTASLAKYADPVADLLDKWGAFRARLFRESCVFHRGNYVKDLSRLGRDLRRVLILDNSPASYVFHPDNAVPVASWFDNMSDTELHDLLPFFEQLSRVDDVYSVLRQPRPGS

[6] = target: DNA (cytosine-5)-methyltransferase 1 (Homo sapiens, UniProt P26358); experiment: DNMT1 methyltransferase inhibitors, confirmation, biochemical, fluorescent molecular beacon (AID 602386); assay type: functional
[7] = target: T3, Small ubiquitin-related modifier 1 (Homo sapiens, UniProt P63165); experiment: inhibitors of SUMO1 peptide binding, dose response, biochemical, fluorescence polarization, uHTS hits (AID 624382); assay type: functional; settings: read-out: IC50_Mean
T3 sequence (P63165 whole entry): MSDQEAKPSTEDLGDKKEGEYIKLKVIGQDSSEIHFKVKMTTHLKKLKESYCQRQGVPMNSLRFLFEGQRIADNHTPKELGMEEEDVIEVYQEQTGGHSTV

[8] = target: T3, Small ubiquitin-related modifier 1; experiment: inhibitors of SUMO1 partner interactions, dose response, biochemical, FRET (AID 624383); assay type: functional; settings: read-out: IC50_Mean
[9] = growth induction of Burl-1 ts yeast mutant, dose response, counter-screen for SUMOylation pathway inhibitor project, whole organism, S. cerevisiae, luminescence (AID 463199); assay type: functional
[10] = target: T4, Dual specificity protein phosphatase 3 (Homo sapiens, UniProt P51452); experiment: VHR1 phosphatase inhibitors, primary screen, biochemical, absorbance, uHTS (AID 1654)
T4 sequence (P51452 whole entry): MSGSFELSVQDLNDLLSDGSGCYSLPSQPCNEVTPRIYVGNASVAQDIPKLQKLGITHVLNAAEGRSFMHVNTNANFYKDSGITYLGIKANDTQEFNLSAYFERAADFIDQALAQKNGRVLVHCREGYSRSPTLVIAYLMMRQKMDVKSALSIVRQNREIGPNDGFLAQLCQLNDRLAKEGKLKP

[11] = target: T5, Voltage-gated N-type calcium channel alpha-1B subunit/Amyloid beta A4 precursor protein-binding family A member 1 (Homo sapiens, UniProt Q00975+Q02410); assay type: protein assay
T5 sequence (Q00975 whole entry): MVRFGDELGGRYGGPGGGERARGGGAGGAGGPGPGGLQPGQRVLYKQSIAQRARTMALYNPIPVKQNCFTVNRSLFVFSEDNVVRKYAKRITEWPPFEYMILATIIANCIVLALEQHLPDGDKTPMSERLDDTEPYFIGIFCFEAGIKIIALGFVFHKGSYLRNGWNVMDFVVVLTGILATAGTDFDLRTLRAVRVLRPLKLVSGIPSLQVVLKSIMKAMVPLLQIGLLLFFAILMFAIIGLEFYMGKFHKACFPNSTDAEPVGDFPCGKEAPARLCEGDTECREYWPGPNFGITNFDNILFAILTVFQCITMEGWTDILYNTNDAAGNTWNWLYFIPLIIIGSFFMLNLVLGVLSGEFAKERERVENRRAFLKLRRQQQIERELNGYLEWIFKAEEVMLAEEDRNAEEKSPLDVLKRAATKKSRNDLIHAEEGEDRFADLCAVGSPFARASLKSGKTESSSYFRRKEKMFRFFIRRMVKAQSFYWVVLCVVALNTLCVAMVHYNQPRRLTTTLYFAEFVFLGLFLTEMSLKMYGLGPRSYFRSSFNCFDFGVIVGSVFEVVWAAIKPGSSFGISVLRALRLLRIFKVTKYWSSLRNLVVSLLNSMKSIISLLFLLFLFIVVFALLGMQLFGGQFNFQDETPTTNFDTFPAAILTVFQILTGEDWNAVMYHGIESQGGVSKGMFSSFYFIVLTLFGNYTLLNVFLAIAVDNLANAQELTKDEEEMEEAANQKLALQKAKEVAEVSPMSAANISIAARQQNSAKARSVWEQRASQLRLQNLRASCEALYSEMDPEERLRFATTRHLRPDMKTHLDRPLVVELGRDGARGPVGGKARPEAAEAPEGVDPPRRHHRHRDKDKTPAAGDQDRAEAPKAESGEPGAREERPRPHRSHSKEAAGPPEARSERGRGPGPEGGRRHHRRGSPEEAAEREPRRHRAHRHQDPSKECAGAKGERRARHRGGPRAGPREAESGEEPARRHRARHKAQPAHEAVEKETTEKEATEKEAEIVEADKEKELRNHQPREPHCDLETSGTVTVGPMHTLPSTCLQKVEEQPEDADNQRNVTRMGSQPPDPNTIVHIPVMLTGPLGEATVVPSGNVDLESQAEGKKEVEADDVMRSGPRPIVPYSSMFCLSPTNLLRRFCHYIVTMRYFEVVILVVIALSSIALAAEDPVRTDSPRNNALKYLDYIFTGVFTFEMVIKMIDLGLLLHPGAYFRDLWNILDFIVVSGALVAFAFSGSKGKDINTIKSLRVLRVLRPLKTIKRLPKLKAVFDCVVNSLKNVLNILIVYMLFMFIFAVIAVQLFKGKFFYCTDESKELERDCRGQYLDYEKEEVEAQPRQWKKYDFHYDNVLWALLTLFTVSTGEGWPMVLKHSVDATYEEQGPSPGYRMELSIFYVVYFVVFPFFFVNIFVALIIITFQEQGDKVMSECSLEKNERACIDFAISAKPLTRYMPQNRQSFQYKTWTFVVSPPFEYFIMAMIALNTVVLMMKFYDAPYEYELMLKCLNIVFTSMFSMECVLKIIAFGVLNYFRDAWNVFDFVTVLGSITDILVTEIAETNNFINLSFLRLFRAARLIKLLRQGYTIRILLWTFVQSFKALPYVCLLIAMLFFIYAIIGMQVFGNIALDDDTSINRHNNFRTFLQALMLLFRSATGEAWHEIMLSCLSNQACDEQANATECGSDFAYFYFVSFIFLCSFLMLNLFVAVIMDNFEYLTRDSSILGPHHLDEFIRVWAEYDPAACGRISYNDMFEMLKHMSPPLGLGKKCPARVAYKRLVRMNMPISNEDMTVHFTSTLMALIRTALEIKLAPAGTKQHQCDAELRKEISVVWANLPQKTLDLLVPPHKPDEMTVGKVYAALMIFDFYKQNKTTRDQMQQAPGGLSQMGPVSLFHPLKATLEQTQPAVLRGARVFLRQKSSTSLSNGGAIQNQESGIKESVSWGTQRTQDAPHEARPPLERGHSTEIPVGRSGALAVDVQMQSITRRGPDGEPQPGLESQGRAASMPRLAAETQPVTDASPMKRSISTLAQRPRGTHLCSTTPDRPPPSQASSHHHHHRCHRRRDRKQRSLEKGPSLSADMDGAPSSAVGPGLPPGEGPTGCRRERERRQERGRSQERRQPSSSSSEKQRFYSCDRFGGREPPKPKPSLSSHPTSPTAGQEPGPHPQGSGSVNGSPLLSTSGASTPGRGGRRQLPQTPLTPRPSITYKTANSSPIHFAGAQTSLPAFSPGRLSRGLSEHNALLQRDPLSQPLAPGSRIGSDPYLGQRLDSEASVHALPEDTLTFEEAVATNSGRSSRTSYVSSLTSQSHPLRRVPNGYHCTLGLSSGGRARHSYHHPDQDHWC
T5 sequence (Q02410 whole entry): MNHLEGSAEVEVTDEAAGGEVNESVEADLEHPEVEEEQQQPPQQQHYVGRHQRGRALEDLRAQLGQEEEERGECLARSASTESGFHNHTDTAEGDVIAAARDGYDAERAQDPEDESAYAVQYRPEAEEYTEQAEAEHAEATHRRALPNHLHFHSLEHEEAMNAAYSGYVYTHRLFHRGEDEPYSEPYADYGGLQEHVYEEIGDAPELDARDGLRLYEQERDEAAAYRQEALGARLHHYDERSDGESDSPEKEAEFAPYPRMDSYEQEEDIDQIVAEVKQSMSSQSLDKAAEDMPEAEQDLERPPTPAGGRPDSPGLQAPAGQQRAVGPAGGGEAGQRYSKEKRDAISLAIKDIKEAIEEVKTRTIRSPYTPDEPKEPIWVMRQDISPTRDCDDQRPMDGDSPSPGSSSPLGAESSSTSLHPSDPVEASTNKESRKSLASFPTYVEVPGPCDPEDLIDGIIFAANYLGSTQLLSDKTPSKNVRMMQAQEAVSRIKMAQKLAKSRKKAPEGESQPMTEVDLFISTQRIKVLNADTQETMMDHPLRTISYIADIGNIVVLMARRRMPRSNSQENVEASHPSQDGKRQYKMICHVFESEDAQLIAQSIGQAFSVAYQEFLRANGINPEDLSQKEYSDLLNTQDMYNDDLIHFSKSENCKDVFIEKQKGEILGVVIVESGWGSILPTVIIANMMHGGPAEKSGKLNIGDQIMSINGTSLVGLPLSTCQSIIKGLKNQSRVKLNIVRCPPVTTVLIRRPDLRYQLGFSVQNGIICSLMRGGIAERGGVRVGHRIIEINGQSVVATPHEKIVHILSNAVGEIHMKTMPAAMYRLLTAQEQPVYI

[12] = target: E3 ubiquitin-protein ligase XIAP (Homo sapiens, UniProt P98170); experiment: Counter Screen using XIAP-Bir3 for Chemical Antagonists of Bir1/2 domains of IAP-family anti-apoptotic proteins. [Related pubchem assays (depositor defined):AID1018, AID1449, AID1514, AID1638, AID1749, AID1750, AID488957, AID488963]
[13] = target: T5, Voltage-gated N-type calcium channel alpha-1B subunit/Amyloid beta A4 precursor protein-binding family A member 1; assay type: protein assay; remark: listed apart in the source
[14] = target: T4, Dual specificity protein phosphatase 3; experiment: VHR1 phosphatase inhibitors, biochemical (AID 1878)
[15] = target: T6, Dual specificity protein phosphatase 6 (Rattus norvegicus, UniProt Q64346); experiment: MKP-3 phosphatase inhibitors, primary screen, biochemical, rat enzyme, in vitro (AID 425)
T6 sequence (Q64346 whole entry): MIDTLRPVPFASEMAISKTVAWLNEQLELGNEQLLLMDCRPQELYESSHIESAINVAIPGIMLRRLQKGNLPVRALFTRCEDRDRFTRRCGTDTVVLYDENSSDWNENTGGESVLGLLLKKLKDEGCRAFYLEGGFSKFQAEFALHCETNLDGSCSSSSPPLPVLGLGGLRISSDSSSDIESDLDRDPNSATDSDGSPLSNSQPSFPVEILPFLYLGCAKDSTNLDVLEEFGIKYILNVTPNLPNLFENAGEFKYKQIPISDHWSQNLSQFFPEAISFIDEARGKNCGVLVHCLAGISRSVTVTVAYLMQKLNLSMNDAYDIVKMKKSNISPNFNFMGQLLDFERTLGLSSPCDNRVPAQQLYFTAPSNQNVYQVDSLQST

[16] = target: T7, Mannose-6-phosphate isomerase (Homo sapiens, UniProt P34949); experiment: PMI enzyme inhibitors, confirmation, biochemical, fluorescence intensity (AID 1535)
T7 sequence (P34949 whole entry): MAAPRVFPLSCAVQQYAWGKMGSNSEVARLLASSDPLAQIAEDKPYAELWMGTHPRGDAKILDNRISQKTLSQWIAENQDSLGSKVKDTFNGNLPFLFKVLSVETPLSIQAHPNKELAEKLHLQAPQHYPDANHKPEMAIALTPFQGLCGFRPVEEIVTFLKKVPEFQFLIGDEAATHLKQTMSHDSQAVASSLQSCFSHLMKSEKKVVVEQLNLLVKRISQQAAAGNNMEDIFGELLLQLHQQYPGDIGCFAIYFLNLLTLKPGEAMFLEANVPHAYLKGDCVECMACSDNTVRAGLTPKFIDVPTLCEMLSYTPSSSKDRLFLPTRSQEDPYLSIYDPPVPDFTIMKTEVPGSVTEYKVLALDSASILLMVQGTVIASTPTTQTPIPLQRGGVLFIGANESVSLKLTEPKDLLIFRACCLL

Phosphomannomutase 2 = Phosphomannomutase 2 (Homo sapiens, UniProt O15305); experiment: Counter screen SAR assay for PMM2 inhibitors via a fluorescence intensity assay. [Related pubchem assays (depositor defined):AID1545, AID1574]
Phosphomannomutase 2, sequence (O15305 whole entry): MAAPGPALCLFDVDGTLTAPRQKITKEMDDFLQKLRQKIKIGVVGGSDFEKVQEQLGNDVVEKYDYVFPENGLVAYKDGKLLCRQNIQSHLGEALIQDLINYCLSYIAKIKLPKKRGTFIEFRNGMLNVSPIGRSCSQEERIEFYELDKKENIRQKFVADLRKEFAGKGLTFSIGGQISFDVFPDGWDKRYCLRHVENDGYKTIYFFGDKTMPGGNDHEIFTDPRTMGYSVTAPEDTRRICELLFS

Induced myeloid leukemia cell differentiation protein Mcl-1, sequence (Q07820 whole entry): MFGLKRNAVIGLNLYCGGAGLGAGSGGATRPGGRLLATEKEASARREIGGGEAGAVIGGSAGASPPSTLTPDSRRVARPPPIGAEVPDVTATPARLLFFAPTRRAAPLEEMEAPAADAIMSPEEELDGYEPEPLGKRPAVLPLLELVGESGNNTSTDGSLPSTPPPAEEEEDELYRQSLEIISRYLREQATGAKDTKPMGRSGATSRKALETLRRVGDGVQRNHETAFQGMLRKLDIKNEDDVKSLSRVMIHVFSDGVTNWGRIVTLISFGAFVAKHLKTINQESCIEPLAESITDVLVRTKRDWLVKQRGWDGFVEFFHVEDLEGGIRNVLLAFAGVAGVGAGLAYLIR
DNA dC->dU-editing enzyme APOBEC-3A, sequence (P31941 whole entry): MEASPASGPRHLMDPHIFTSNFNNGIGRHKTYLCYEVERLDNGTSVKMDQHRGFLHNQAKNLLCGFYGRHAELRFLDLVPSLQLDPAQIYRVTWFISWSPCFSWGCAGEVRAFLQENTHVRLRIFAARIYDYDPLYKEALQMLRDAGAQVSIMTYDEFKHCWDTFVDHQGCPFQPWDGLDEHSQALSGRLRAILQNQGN

For `C=C(C)C(=O)Nc1cccc(C2=NOC3(C2)C[C@@H](C(N)=O)N(C(=O)C(=C)C)C3)c1` (some centres not stated), the IC50 [1] was 3.08 µM (not active), the IC50 [2] was > 100 µM (inactive) and the IC50 [3] was 5.94 µM (active). The EC50 [4] was 1.24 µM (active), the IC50 [5] was 1.89 µM (active) and the IC50 [6] was 4.95 µM (active). For the same compound, the IC50 [7] was > 66.6 µM (inactive) and the IC50 [8] was 2.56 µM (active).
In the case of `COc1ccc(Cl)cc1N(C(=O)c1ccco1)C(C(=O)NC1CCCC1)c1ccncc1` (configuration not stated), the AC50 [9] is reported as 104 µM (active).
In the case of `CCOC(=O)C1=C(C)N=c2s/c(=C\c3ccc(OCC(=O)O)cc3)c(=O)n2C1c1ccc(Cl)cc1` (configuration not stated), the IC50 [10] is reported as 11.3 µM (active), the IC50 [11] is reported as 33.7 µM (active) and the IC50 [12] is reported as > 20 µM (inactive). For the same compound, the IC50 [13] was > 50 µM (inactive), the IC50 [14] was 8.8 µM (active) and the IC50 [15] was > 158 µM (not active).
In the case of `FC(F)(F)Oc1cccc(/N=c2\ssnc2Cl)c1`, the IC50 [16] is reported as 27.5 µM (active) and the IC50 (Phosphomannomutase 2) is reported as > 100 µM (inactive).

Source: ChEMBL document CHEMBL1201862, “PubChem BioAssay data set” (2004)
